Test results as given in patent publication US10842152B2, “Isothiazolo-based bicycles, processes for their preparation and their use as herbicides and/or plant growth regulators” (Bayer CropScience Aktiengesellschaft, priority 2017, dated 2020).

Columns and labels:
Nezara viridula = Nezara viridula spray test; type: in vivo; settings: application rate 500 g/ha, after 4 days, barley plants
Protocol: Solvent: 78.0 parts by weight of acetone • • 1.5 parts by weight of dimethylformamide
Emulsifier: alkylarylpolyglycol ether
To produce a suitable preparation of active compound, 1 part by weight of active compound is mixed with the stated amount of solvent, and the concentrate is diluted with water, containing an emulsifier concentration of 1000 ppm, to the desired concentration. Further test concentrations are prepared by dilution with emulsifier containing water.
Barley plants (Hordeum vulgare) infested with larvae of the southern green stink bug (Nezara viridula) are sprayed with a test solution containing the desired concentration of the active ingredient.
After 4 days mortality in % is determined. 100% means all the stink bugs have been killed; 0% means none of the stink bugs have been killed.

Viola tricolor [1] = assay: Herbicidal effect post-emergence; type: in vivo; settings: 320 g/ha
Text: (§1) Herbicidal activities of the compounds of the formulae (G1) or (G2) according to the invention were investigated against the following harmful plants: • ALOMY=Alopecurus myosuroides • ECHCG=Echinochloa crus-galli • SETVI=Setaria viridis • ABUTH=Abutilon theophrasti • AMARE=Amaranthus retroflexus • PHBPU=Pharbitis purpurea • POLCO=Polygonum convolvulus (=Fallopia convolvulus) • STEME=Stellaria media • VIOTR=Viola tricolor
(§2) Seeds of mono- and dicotyledonous weed plants and crop plants are sown in wood-fiber pots in sandy loam, covered with soil and grown in a greenhouse under controlled growth conditions. 2 to 3 weeks after sowing, the test plants are sprayed in the single-leaf stage. The compounds according to the invention, formulated in form of wettable powders (WP) or as emulsifiable concentrates (EC), are then sprayed onto the green plant parts as aqueous suspension or emulsion, with the addition of 0.5% of an additive, at an application rate of 600 l of water/ha (converted). After the test plants had been in the greenhouse for ca. 3 weeks under optimum growth conditions, the effect of the preparations is assessed visually in comparison with untreated controls (herbicidal effect in percent (%): 100% effect=plants have died off, 0% effect=as control plants).

Amaranthus retroflexus [2] = assay: Herbicidal effect post-emergence; type: in vivo; settings: 320 g/ha
Text: as §1, §2

Setaria viridis [3] = assay: Herbicidal effect post-emergence; type: in vivo; settings: 320 g/ha
Text: as §1, §2

Viola tricolor [4] = assay: Herbicidal effect pre-emergence; type: in vivo; settings: 320 g/ha, visual grading after ca. 3 weeks vs untreated controls
Text: as §1
(§3) Seeds of mono- and dicotyledonous weed plants and crop plants are sown in wood-fiber pots in sandy loam and covered with soil. The compounds according to the invention, formulated in the form of wettable powders (WP) or as emulsifiable concentrates (EC), are then applied to the surface of the covering soil as aqueous suspension or emulsion, with the addition of 0.5% of an additive, at an application rate of 600 l of water/ha (converted).
(§4) Following treatment, the pots are placed in a greenhouse and kept under optimum growth conditions for the test plants. The visual grading of the damage to the test plants is carried out after ca. 3 weeks in comparison to untreated controls (herbicidal effect in percent (%): 100% effect=plants have died off, 0% effect=as control plants).

Amaranthus retroflexus [5] = assay: Herbicidal effect pre-emergence; type: in vivo; settings: 320 g/ha, visual grading after ca. 3 weeks vs untreated controls
Text: as §1, §3, §4

Setaria viridis [6] = assay: Herbicidal effect pre-emergence; type: in vivo; settings: 320 g/ha, visual grading after ca. 3 weeks vs untreated controls
Text: as §1, §3, §4

Abutilon theophrasti = assay: Herbicidal effect post-emergence; type: in vivo; settings: 320 g/ha, visual grading after ca. 3 weeks (Table 8)
Text: as §1, §2

Stellaria media [7] = assay: Herbicidal effect pre-emergence; type: in vivo; settings: 320 g/ha, visual grading after ca. 3 weeks vs untreated controls
Text: as §1, §3, §4

Alopecurus myosuroides = assay: Herbicidal effect pre-emergence; type: in vivo; settings: 320 g/ha, visual grading after ca. 3 weeks vs untreated controls
Text: as §1, §3, §4

MATIN [8] = assay: Herbicidal effect pre-emergence; type: in vivo, Matricaria inodora; settings: 320 g/ha, visual grading after ca. 3 weeks vs untreated controls
Text: as §3, §4

Meloidogyne incognita = Meloidogyne incognita test; type: in vivo; settings: application rate 20 ppm, after 14 days, salad seedlings
Protocol: Solvent: 125.0 parts by weight of acetone
To produce a suitable preparation of active compound, 1 part by weight of active compound is mixed with the stated amount of solvent, and the concentrate is diluted with water to the desired concentration.
Vessels are filled with sand, a solution of the active ingredient, a suspension containing eggs and larvae of the southern root-knot nematode (Meloidogyne incognita) and salad seeds. The salad seeds germinate and the seedlings grow. Galls develop in the roots.
After 14 days the nematicidal activity is determined on the basis of the percentage of gall formation. 100% means no galls were found and 0% means the number of galls found on the roots of the treated plants was equal to that in untreated control plants.

Pharbitis purpurea = assay: Herbicidal effect post-emergence; type: in vivo; settings: 320 g/ha, visual grading after ca. 3 weeks (Table 7)
Text: as §1, §2

[9] = test system: Polygonum convolvulus (=Fallopia convolvulus); assay: Herbicidal effect post-emergence; type: in vivo; settings: 320 g/ha, visual grading after ca. 3 weeks (Table 7)
Text: as §1, §2

Stellaria media [10] = assay: Herbicidal effect post-emergence; type: in vivo; settings: 320 g/ha, visual grading after ca. 3 weeks (Table 7)
Text: as §1, §2

MATIN [11] = assay: Herbicidal effect post-emergence; type: in vivo, Matricaria inodora; settings: 320 g/ha, visual grading after ca. 3 weeks (Table 7)
Text: as §2

[12] = visual grading after ca. 3 weeks (Table 9)
[13] = visual grading after ca. 3 weeks (Table 8)
[14] = visual grading after ca. 3 weeks (Table 7)

Row | Compound | herbicidal effect VIOTR (Viola tricolor [4]) | herbicidal effect AMARE (Amaranthus retroflexus [5]) | herbicidal effect SETVI (Setaria viridis [6]) | herbicidal effect STEME (Stellaria media [7]) | herbicidal effect ALOMY (Alopecurus myosuroides) | herbicidal effect MATIN (MATIN [8]) | herbicidal effect PHBPU (Pharbitis purpurea) | herbicidal effect VIOTR (Viola tricolor [1]; [14]) | herbicidal effect POLCO [9] | herbicidal effect STEME (Stellaria media [10]) | herbicidal effect AMARE (Amaranthus retroflexus [2]; [14]) | herbicidal effect SETVI (Setaria viridis [3]; [14]) | herbicidal effect MATIN (MATIN [11]) | also measured
1 | CC(=O)Nc1nsc2c(=O)n(CC3CCCCC3)cc(Br)c12 [Example I-102] | 100% | 100% | 100% | – | – | – | – | – | – | – | – | – | – | mortality (Nezara viridula): 90%; herbicidal effect VIOTR (Viola tricolor [1]; [12]): 100%; herbicidal effect AMARE (Amaranthus retroflexus [2]; [12]): 100%; herbicidal effect SETVI (Setaria viridis [3]; [12]): 100%
2 | CCC(=O)Nc1nsc2c(=O)n(CC3CCCCC3)cc(Cl)c12 [Example I-083] | 100% | 100% | 100% | 100% | 100% | 100% | – | – | – | – | – | – | – | herbicidal effect VIOTR (Viola tricolor [1]; [13]): 100%; herbicidal effect ABUTH (Abutilon theophrasti): 80%; herbicidal effect AMARE (Amaranthus retroflexus [2]; [13]): 100%; herbicidal effect SETVI (Setaria viridis [3]; [13]): 100%
3 | CC(C)Cc1cc2c(N)nsc2c(=O)n1CC1CCCCC1 [Example I-050] | – | – | – | – | – | – | – | – | – | – | – | – | – | nematicidal activity (gall formation) (Meloidogyne incognita): 90%
4 | Nc1nsc2c(=O)n(CC3CCCCC3Cl)cc(Cl)c12 (racemic) [Example I-156] | 100% | 100% | 100% | 100% | 100% | 100% | 100% | 100% | 100% | 100% | 100% | 100% | 80% | –
5 | O=C(Nc1nsc2c(=O)n(CC3CCCCC3Cl)cc(Cl)c12)C(F)F (racemic) [Example I-160] | 100% | 100% | 100% | 100% | 100% | 100% | 100% | 100% | 100% | 100% | 100% | 100% | 80% | –
6 | CCC(=O)N(C(=O)CC)c1nsc2c(=O)n(CC3CCCCC3)c(CO)cc12 [Example I-049] | 90% | 100% | 100% | 100% | 80% | 80% | – | – | – | – | – | – | – | herbicidal effect VIOTR (Viola tricolor [1]; [12]): 100%; herbicidal effect AMARE (Amaranthus retroflexus [2]; [12]): 90%; herbicidal effect SETVI (Setaria viridis [3]; [12]): 100%; nematicidal activity (gall formation) (Meloidogyne incognita): 90%
7 | CCC(=O)OCC1Cc2c(N)nsc2C(=O)N1CC1CCCCC1 (stereo not drawn) [Example I-039] | 100% | 100% | 100% | – | – | – | – | – | – | – | – | – | – | herbicidal effect VIOTR (Viola tricolor [1]; [13]): 100%; herbicidal effect ABUTH (Abutilon theophrasti): 100%; herbicidal effect AMARE (Amaranthus retroflexus [2]; [13]): 100%; herbicidal effect SETVI (Setaria viridis [3]; [13]): 100%
8 | CCC(=O)Nc1nsc2c(=O)n(CC3CCCCC3)cc(Br)c12 [Example I-078] | 100% | 100% | 100% | 100% | 100% | 100% | – | – | – | – | – | – | – | mortality (Nezara viridula): 90%; herbicidal effect VIOTR (Viola tricolor [1]; [12]): 80%; herbicidal effect AMARE (Amaranthus retroflexus [2]; [12]): 100%; herbicidal effect SETVI (Setaria viridis [3]; [12]): 100%
9 | O=C(Nc1nsc2c(=O)n(Cc3cc(F)c(F)cc3F)cc(F)c12)C(F)F [Example I-165] | 100% | 100% | 100% | 100% | 100% | 100% | 80% | 100% | 100% | 100% | 100% | 90% | 100% | –
10 | CCC(=O)Nc1nsc2c(=O)n(CC3CCCCC3)cc(F)c12 [Example I-128] | 100% | 100% | 100% | 100% | 100% | 100% | 100% | 100% | 100% | 100% | 100% | 100% | 100% | –
11 | CCC(=O)Nc1nsc2c(=O)n(CC3CCCCC3Cl)cc(Cl)c12 (racemic) [Example I-172] | 100% | 100% | 100% | 100% | 100% | 100% | – | – | – | – | – | – | – | herbicidal effect VIOTR (Viola tricolor [1]; [13]): 100%; herbicidal effect ABUTH (Abutilon theophrasti): 100%; herbicidal effect AMARE (Amaranthus retroflexus [2]; [13]): 100%; herbicidal effect SETVI (Setaria viridis [3]; [13]): 80%
12 | O=C(Nc1nsc2c(=O)n(CC3CCCCC3)cc(F)c12)C(F)(F)C(F)(F)F [Example I-127] | 100% | 100% | 100% | 100% | 100% | 100% | 100% | 100% | 100% | 100% | 100% | 100% | 100% | –
13 | Nc1nsc2c(=O)n(Cc3cc(F)c(F)cc3F)cc(F)c12 [Example I-163] | 100% | 100% | 100% | 100% | 100% | 100% | – | – | – | – | – | – | – | herbicidal effect VIOTR (Viola tricolor [1]; [13]): 90%; herbicidal effect ABUTH (Abutilon theophrasti): 90%; herbicidal effect AMARE (Amaranthus retroflexus [2]; [13]): 100%; herbicidal effect SETVI (Setaria viridis [3]; [13]): 90%
14 | CCC(=O)N(C(=O)CC)c1nsc2c(=O)n(CC3CCCCC3)c(COC3CCCCO3)cc12 (stereo not drawn) [Example I-042] | – | – | – | – | – | – | – | – | – | – | – | – | – | herbicidal effect VIOTR (Viola tricolor [1]; [12]): 100%; herbicidal effect AMARE (Amaranthus retroflexus [2]; [12]): 100%; herbicidal effect SETVI (Setaria viridis [3]; [12]): 90%; nematicidal activity (gall formation) (Meloidogyne incognita): 90%
15 | Nc1nsc2c(=O)n(CC3CCCCC3)c(COC3CCCCO3)cc12 (stereo not drawn) [Example I-038] | – | – | – | – | – | – | – | – | – | – | – | – | – | nematicidal activity (gall formation) (Meloidogyne incognita): 90%
